Experimental data as given in patent publication EP1745781A1, “Combination of pyrazoline type cannabinoid receptor antagonist and statin” (LABORATORIOS DEL DR. ESTEVE, S.A., priority 2005, dated 2007).

Legend:
[1] = system: Male NMRI mice; experiment: Mouse tetrad model: sedation and ataxia; type: in vivo; details: for Agonistic effect D: Sedation: 5 mg/kg i.v.; for Antagonistic Effect D: Sedation: 5 mg/kg i.v. prior to Win 55212-2 in a dose of 1.25mg/kg i.v.
From the text: (§1) II. In-vivo bioassay system for determination of cannabinoid activity
(§2) Substances with affinity for cannabinoid receptors are known to produce a wide range of pharmacological effects. It is also known that intravenous administration of a substance with affinity for cannabinoid receptors in mice produces analgesia , hypothermia, sedation and catalepsy. Individually, none of these effects can be considered as proof that a tested substance has affinity for cannabinoid-receptors, since all of these effects are common for various classes of centrally active agents. However, substances, which show all of these effects, i.e. substances that are active in this so-called tetrad model are considered to have affinity for the cannabinoid receptors. It has further been shown that cannabinoid receptor antagonists are higly effective in blocking the effects of a cannabinoid agonist in the mouse tetrad model.
(§3) The tetrad model is described, for example, in the publication of A. C. Howlett et al, international Union of Pharmacology XXVII. Classification of Cannabinoid Receptors, Pharmacol Rev 54, 161-202 , 2002 and David R. Compton et al., "In-vivo Characterization of a Specific Cannabinoid Receptor Antagonist (SR141716A) :Inhibition of Tetrahydrocannbinol- induced Responses and Apparent Agonist Activity", J. Pharmacol. Exp. Ther. 277 , 2, 586-594, 1996. The corresponding parts of the description are hereby incorporated by reference.
Male NMRI mice with a weight of 20-30 g (Harlan, Barcelona, Spain) are used in all of the following experiments.
(§4) Before testing in the behavioral procedures given below, mice are acclimatized to the experimental setting. Pre-Treatment control values are determined for analgesia hot plate latency (in seconds), rectal temperature, sedation and catalepsy.
(§5) In order to determine the agonistic activty of the substance to be tested, the mice are injected intravenously with the substance to be tested or the vehicle alone. 15 minutes after injection, latency in hot plate analgesia is measured. Rectal temperature, sedation and catalepsy are measured 20 minutes after injection.
(§6) In order to determine the antagonistic activity the identical procedure is used as for the determination of the agonistic effects, but with the difference that the substance to be evaluated for its antagonistic activity is injectected 5 minutes before the intravenous injection of 1.25 mg/kg Win-55,212 a known cannabinoid-receptor agonist.
Determination of sedation and ataxia
Sedation and ataxia is determined according to the method described in Desmet L. K. C. et al. "Anticonvulsive properties of Cinarizine and Flunarizine in Rats and Mice", Arzneim. -Forsch. (Frug Res) 25, 9, 1975. […]
The percentage of sedation is determined according to the formula: %of sedation = arithmetic mean/3 × 100 [formula]

[2] = biological target: T1, CB2-Receptor (Homo sapiens, UniProt P34972); experiment: In-vitro determination of affinity to CB2 receptor (radioligand [^3H]-CP55940); type: binding
T1 construct: purchased Receptor Biology, Inc
T1 sequence (P34972 whole entry): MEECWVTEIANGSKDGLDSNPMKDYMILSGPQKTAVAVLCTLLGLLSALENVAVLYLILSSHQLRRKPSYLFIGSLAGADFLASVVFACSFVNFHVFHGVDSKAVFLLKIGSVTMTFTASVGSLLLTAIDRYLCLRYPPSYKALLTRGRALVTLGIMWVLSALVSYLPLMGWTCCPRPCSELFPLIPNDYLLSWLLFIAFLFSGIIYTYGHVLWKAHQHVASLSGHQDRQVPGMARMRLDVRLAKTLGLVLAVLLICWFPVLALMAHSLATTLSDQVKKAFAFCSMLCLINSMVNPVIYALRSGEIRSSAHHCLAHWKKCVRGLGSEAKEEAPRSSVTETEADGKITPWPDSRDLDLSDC
Protocol: (§7) I. In-vitro determination of affinity to CB1/CB2-Receptors
(§8) The in-vitro determination of the affinity of the substituted pyrazoline compounds to CB1/CB2-Rezeptors is carried out as described in the publication of Ruth A. Ross, Heather C. Brockie et al., "Agonist-inverse agonist characterization at CB1 and CB2 cannabinoid receptors of L-759633. L759656 and AM630", British Journal of Pharmacology, 126, 665-672, (1999), whereby the transfected human CB1 and CB2 receptors of Receptor Biology, Inc. are used. The radioligand used for both receptors is [^3H]-CP55940. The respective parts of the description is hereby incorporated by reference and forms part of the present disclosure.

[3] = biological target: T2, CB1-Receptor (Homo sapiens, UniProt P21554); experiment: In-vitro determination of affinity to CB1 receptor (radioligand [^3H]-CP55940); type: binding
T2 construct: purchased Receptor Biology, Inc
T2 sequence (P21554 whole entry): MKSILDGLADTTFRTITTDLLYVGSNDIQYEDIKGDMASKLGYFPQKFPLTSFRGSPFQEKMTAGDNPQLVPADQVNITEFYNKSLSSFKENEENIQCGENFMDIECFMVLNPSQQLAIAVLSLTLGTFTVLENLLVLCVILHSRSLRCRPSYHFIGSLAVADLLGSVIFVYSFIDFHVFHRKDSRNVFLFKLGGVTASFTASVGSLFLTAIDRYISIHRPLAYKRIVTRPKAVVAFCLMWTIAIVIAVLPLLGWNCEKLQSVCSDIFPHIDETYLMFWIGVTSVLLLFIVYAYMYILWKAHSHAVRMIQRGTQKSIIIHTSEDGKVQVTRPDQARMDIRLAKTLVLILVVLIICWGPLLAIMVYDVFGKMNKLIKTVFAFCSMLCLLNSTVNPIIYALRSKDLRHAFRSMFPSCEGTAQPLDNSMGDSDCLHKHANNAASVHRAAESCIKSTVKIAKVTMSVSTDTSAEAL
Protocol: as §7, §8

[4] = system: Male NMRI mice; experiment: Mouse tetrad model: hot plate analgesia; type: in vivo; details: for Agonistic effect A: Hot-Plate test: 5 mg/kg i.v.; for Antagonistic Effect A: Hot-Plate test: 5 mg/kg i.v. prior to Win 55212-2 in a dose of 1.25mg/kg i.v.
From the text: as §1, §2
as §3, with “reference. […]” for “reference.”
as §4, §5, §6
The hot plate analgesia is determined according to the method described in Woolfe D. et al. "The evaluation of analgesic action of pethidine hydrochloride (Demerol)", J. Pharmacol. Exp. Ther. 80, 300-307,1944. […]
The mice are placed on a hot plate (Harvard Analgesimeter) at 55 ± 0.5 °C until they show a painful sensation by licking their paws or jumping and the time for these sensations to occur is recorded. This reading is considered the basal value (B). […]

[5] = system: Male NMRI mice; experiment: Mouse tetrad model: hypothermia; type: in vivo; details: for Agonistic effect B: Hypothermia: 5 mg/kg i.v.; for Antagonistic Effect B: Hypothermia: 5 mg/kg i.v. prior to Win 55212-2 in a dose of 1.25mg/kg i.v.
From the text: as §1, §2
as §3, with “The corresponding parts of the description are hereby incorporated by reference.” left out
as §4, §5, §6
Hypothermia is determined according to the method described in David R. Compton et al. "In-vivo Characterization of a Specific Cannabinoid Receptor Antagonist (SR141716A) Inhibition of Tetrahydrocannbinol- induced Responses and Apparent Agonist Activity", J. Pharmacol Exp Ther. 277 , 2, 586-594, 1996. […]
The base-line rectal temperatures are determined with a thermometer (Yello Springs Instruments Co., Panlabs) and a thermistor probe inserted to 25mm before the administration of the substance to be tested. […]

[6] = system: Male NMRI mice; experiment: Mouse tetrad model: catalepsy; type: in vivo; details: for Agonistic effect C: Catalepsy: 5 mg/kg i.v.; for Antagonistic Effect C: Catalepsy: 5 mg/kg i.v. prior to Win 55212-2 in a dose of 1.25mg/kg i.v.
From the text: as §1, §2
as §3, with “The corresponding parts of the description are hereby incorporated by reference.” left out
as §4, §5, §6
Catalepsy is determined according to the method described in Alpermann H. G. et al. "Pharmacological effets of Hoe 249: A new potential antidepressant", Drugs Dev. […]
The cataleptic effect of the substance to be tested is evaluated according to the duration of catalepsy, whereby the animals are placed head downwards with their kinlegs upon the top of the wooden block. […]
The percentage of catalepsy is determined according ot the following formula: %Catalepsy = arithmetic mean/6 × 100 [formula]

O=C(NN1CCCCC1)C1=NN(c2ccc(Cl)cc2Cl)C(c2ccc(Cl)cc2)C1 (stereo not shown) [Example 1, N-piperidinyl-5-(4-chlorophenyl)-1-(2,4-dichlorophenyl)-4,5-dihydro-1H-pyrazole-3-carboxamide]
Agonistic effect D: Sedation [1]: 0 | Antagonistic Effect D: Sedation [1]: 100 | Ki [2]: > 1000 nM | Ki [3]: < 25 nM | Agonistic effect A: Hot-Plate test [4]: 0 | Antagonistic Effect A: Hot-Plate test [4]: 74 | Agonistic effect B: Hypothermia [5]: 0 | Antagonistic Effect B: Hypothermia [5]: 100 | Agonistic effect C: Catalepsy [6]: 0 | Antagonistic Effect C: Catalepsy [6]: 100

O=C(C1=NN(c2ccc(Cl)cc2Cl)C(c2ccc(Cl)cc2)C1)N1CCCCC1 (stereo not shown) [Example 5, [5-(4-Chloro-phenyl)-1-(2,4-dichloro-phenyl)-4,5-dihydro-1H-pyrazol-3-yl]-piperidin-1-yl-methanone]
Agonistic effect D: Sedation [1]: 0 | Antagonistic Effect D: Sedation [1]: 20 | Ki [2]: ~1000 nM | Agonistic effect A: Hot-Plate test [4]: 0 | Antagonistic Effect A: Hot-Plate test [4]: 50 | Agonistic effect B: Hypothermia [5]: 50 | Antagonistic Effect B: Hypothermia [5]: 40 | Agonistic effect C: Catalepsy [6]: 0 | Antagonistic Effect C: Catalepsy [6]: 20
